# Measurements published in patent US11242337B2, “Compounds useful for treating gastrointestinal tract disorders” (Ardelyx, Inc., priority 2017, dated 2022).
# Key:
# NHE3 = target: T1, NHE3 (Homo sapiens, UniProt P48764); assay: Cell-based assay of NHE-3 activity (pre-incubation inhibition), human; details: human Preincubation; for pIC50: 0-30 μM test compound
# T1 construct: expressed in transfected cells
# T1 sequence (P48764 26-834): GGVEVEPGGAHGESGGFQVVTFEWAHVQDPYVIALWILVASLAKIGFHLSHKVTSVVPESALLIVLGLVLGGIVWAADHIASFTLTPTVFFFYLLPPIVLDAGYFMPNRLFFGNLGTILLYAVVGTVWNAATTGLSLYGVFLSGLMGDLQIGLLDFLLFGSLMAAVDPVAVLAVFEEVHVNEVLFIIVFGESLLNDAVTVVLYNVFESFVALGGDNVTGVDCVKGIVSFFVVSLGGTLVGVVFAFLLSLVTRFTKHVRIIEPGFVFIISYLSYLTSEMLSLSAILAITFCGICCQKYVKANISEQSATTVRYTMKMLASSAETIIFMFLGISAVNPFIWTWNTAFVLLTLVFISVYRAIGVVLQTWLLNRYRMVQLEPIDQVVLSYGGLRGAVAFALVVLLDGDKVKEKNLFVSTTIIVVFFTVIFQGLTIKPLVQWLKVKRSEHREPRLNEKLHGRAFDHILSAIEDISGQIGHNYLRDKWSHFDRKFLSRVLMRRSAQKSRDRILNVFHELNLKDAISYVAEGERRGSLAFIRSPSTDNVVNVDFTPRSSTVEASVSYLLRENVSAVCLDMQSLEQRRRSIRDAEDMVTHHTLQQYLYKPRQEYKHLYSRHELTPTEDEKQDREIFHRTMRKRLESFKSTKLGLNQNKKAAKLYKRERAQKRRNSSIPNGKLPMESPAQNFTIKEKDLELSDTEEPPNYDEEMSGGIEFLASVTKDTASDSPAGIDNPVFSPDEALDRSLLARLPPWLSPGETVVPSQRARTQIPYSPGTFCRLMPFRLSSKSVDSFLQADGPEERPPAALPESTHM
# T1 sequence (Q99653 2-195 partner limits assumed): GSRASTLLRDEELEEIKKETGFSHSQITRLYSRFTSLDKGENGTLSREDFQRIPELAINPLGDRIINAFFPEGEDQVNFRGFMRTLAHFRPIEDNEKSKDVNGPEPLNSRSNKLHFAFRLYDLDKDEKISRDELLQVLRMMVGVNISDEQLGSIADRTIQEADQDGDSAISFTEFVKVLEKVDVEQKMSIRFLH
# Procedure, shortened: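 Activity read as initial rate of BCECF fluorescence ratio change per minute (ex 439/505, em 538 nm) following NH4Cl prepulse acid loading. Compound (0–30 μM) present during 10 min Na+-free acidification at room temperature; cells were PS120 fibroblasts stably co-expressing human NHE3 and NHERF2.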
# [1] = test system: human duodenum monolayer culture; assay: Sustained inhibition of apical acid secretion in human organoid monolayer cell cultures (duodenum); format: cell-based; details: Homo sapiens
# Procedure, shortened: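 Duodenum organoid cells were plated on Transwells, differentiated with EGF/noggin/A83-01 from day 3, and dosed apically on day 6 with compound at 1 μM final (DMSO vehicle control), in duplicate wells, at 37° C, 5% CO2. Apical media pH was measured by electrode on day 8.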
SMILES,% inhibition (NHE3),pIC50 (NHE3),inhibition at 1 µM [1] [%]
"N#Cc1cc(Cl)cc2c1C[C@H](N1CCNCC1)[C@H]2Oc1ccc(S(=O)(=O)NCCOCCOCCNC(=O)NCCCCNC(=O)NCCOCCOCCNS(=O)(=O)c2ccc(O[C@H]3c4cc(Cl)cc(C#N)c4C[C@@H]3N3CCNCC3)cc2)cc1 [Example 41, 3-[2-(2-[2-[(4-[[(1S,2S)-6-Chloro-4-cyano-2-(piperazin-1-yl)-2,3-dihydro-1H-inden-1-yl]oxy]benzene)sulfonamido]ethoxy]ethoxy)ethyl]-1-[4-([[2-(2-[2-[(4-[[(1S,2S)-6-chloro-4-cyano-2-(piperazin-1-yl)-2,3-dihydro-1H-inden-1-yl]oxy]benzene)sulfonamido]ethoxy]ethoxy)ethyl]carbamoyl]amino)butyl]urea; bis(trifluoroacetic acid)]",C (>70%),C (NHE3 pIC50 > 7),> 70
"O=C(NCCCCNC(=O)NCCOCCOCCNS(=O)(=O)c1ccc(O[C@H]2c3cc(Cl)cc(Cl)c3C[C@@H]2N2CCNCC2)cc1)NCCOCCOCCNS(=O)(=O)c1ccc(O[C@H]2c3cc(Cl)cc(Cl)c3C[C@@H]2N2CCNCC2)cc1 [Example 31, 3-[2-(2-[2-[(4-[[(1S,2S)-4,6-Dichloro-2-(piperazin-1-yl)-2,3-dihydro-1H-inden-1-yl]oxy]benzene)sulfonamido]ethoxy]ethoxy)ethyl]-1-[4-([[2-(2-[2-[(4-[[(1S,2S)-4,6-dichloro-2-(piperazin-1-yl)-2,3-dihydro-1H-inden-1-yl]oxy]benzene)sulfonamido]ethoxy]ethoxy)ethyl]carbamoyl]amino)butyl]urea; bis(trifluoroacetic acid)]",C (>70%),–,> 70
"Cc1cc(S(=O)(=O)NCCOCCOCCNC(=O)NCCCCNC(=O)NCCOCCOCCNS(=O)(=O)c2ccc(O[C@H]3c4cc(Cl)cc(Cl)c4C[C@@H]3N3CCC[C@@H](N(C)C)C3)c(C)c2)ccc1O[C@H]1c2cc(Cl)cc(Cl)c2C[C@@H]1N1CCC[C@@H](N(C)C)C1 [Example 26, 3-[2-(2-[2-[(4-[[(1S,2S)-4,6-Dichloro-2-[(3R)-3-(dimethylamino)piperidin-1-yl]-2,3-dihydro-1H-inden-1-yl]oxy]-3-methylbenzene)sulfonamido]ethoxy]ethoxy)ethyl]-1-[4-([[2-(2-[2-[4-[[(1S,2S)-4,6-dichloro-2-[(3R)-3-(dimethylamino)piperidin-1-yl]-2,3-dihydro-1H-inden-1-yl]oxy]-3-methylbenzenesulfonamido]ethoxy]ethoxy)ethyl]carbamoyl]amino)butyl]urea; bis(trifluoroacetic acid)]",C (>70%),–,50 to 70
"CN(C)[C@H]1Cc2c(Cl)cc(Cl)cc2[C@@H]1Oc1ccc(S(=O)(=O)NCCOCCOCCNC(=O)NCCCCNC(=O)NCCOCCOCCNS(=O)(=O)c2ccc(O[C@H]3c4cc(Cl)cc(Cl)c4C[C@@H]3N(C)C)c(F)c2)cc1F [Example 23, 3-[2-(2-[2-[(4-[[(1S,2S)-4,6-Dichloro-2-(dimethylamino)-2,3-dihydro-1H-inden-1-yl]oxy]-3-fluorobenzene)sulfonamido]ethoxy]ethoxy)ethyl]-1-[4-([[2-(2-[2-[(4-[[(1S,2S)-4,6-dichloro-2-(dimethylamino)-2,3-dihydro-1H-inden-1-yl]oxy]-3-fluorobenzene)sulfonamido]ethoxy]ethoxy)ethyl]carbamoyl]amino)butyl]urea; bis(trifluoroacetic acid)]",C (>70%),C (NHE3 pIC50 > 7),50 to 70
"Cc1cc(S(=O)(=O)N[C@H]2CCN(CCOCCNC(=O)NCCCCNC(=O)NCCOCCN3CC[C@H](NS(=O)(=O)c4ccc(O[C@H]5c6cc(Cl)cc(Cl)c6C[C@@H]5N(C)C)c(C)c4)C3)C2)ccc1O[C@H]1c2cc(Cl)cc(Cl)c2C[C@@H]1N(C)C [Example 52, 3-(2-[2-[(3S)-3-[(4-[[(1S,2S)-4,6-Dichloro-2-(dimethylamino)-2,3-dihydro-1H-inden-1-yl]oxy]-3-methylbenzene)sulfonamido]pyrrolidin-1-yl]ethoxy]ethyl)-1-(4-[[(2-[2-[(3S)-3-[(4-[[(1S,2S)-4,6-dichloro-2-(dimethylamino)-2,3-dihydro-1H-inden-1-yl]oxy]-3-methylbenzene)sulfonamido]pyrrolidin-1-yl]ethoxy]ethyl)carbamoyl]amino]butyl)urea]",C (>70%),C (NHE3 pIC50 > 7),> 70

# Now from value to compound, other results behind:
% inhibition (NHE3),pIC50 (NHE3),SMILES,inhibition at 1 µM [1] [%]
C (>70%),C (NHE3 pIC50 > 7),"N#Cc1cc(Cl)cc2c1C[C@H](N1CCNCC1)[C@H]2Oc1ccc(S(=O)(=O)N[C@H]2CCN(CCOCCNC(=O)NCCCCNC(=O)NCCOCCN3CC[C@H](NS(=O)(=O)c4ccc(O[C@H]5c6cc(Cl)cc(C#N)c6C[C@@H]5N5CCNCC5)cc4)C3)C2)cc1 [Example 107, 4-([(1S,2S)-6-Chloro-4-cyano-2-(piperazin-1-yl)-2,3-dihydro-1H-inden-1-yl]oxy)-N—[(S)-1-(20-[(S)-3-([4-([(1S,2S)-6-chloro-4-cyano-2-(piperazin-1-yl)-2,3-dihydro-1H-inden-1-yl]oxy)phenyl]sulfonamido)pyrrolidin-1-yl]-7,14-dioxo-3,18-dioxa-6,8,13,15-tetraazaicosyl)pyrrolidin-3-yl]benzenesulfonamide; tetra(trifluoroacetate)]",> 70
C (>70%),C (NHE3 pIC50 > 7),"N#Cc1cc(Cl)cc2c1C[C@H](N1CCNCC1)[C@H]2Oc1ccc(S(=O)(=O)N[C@@H]2CCN(CCOCCNC(=O)NCCCCNC(=O)NCCOCCN3CC[C@@H](NS(=O)(=O)c4ccc(O[C@H]5c6cc(Cl)cc(C#N)c6C[C@@H]5N5CCNCC5)c(F)c4)C3)C2)cc1F [Example 109, 4-([(1S,2S)-6-Chloro-4-cyano-2-(piperazin-1-yl)-2,3-dihydro-1H-inden-1-yl]oxy)-N—[(R)-1-(20-[(R)-3-[(4-([(1S,2S)-6-chloro-4-cyano-2-(piperazin-1-yl)-2,3-dihydro-1H-inden-1-yl]oxy)-3-fluorophenyl)sulfonamide)pyrrolidin-1-yl]-7,14-dioxo-3,18-dioxa-6,8,13,15-tetraazaicosyl)pyrrolidin-3-yl]-3-fluorobenzenesulfonamide; tetra(trifluoroacetate)]",> 70
C (>70%),C (NHE3 pIC50 > 7),"N#Cc1cc(Cl)cc2c1C[C@H](N1CCNCC1)[C@H]2Oc1ccc(S(=O)(=O)N[C@H]2CCN(CCOCCNC(=O)NCCCCNC(=O)NCCOCCN3CC[C@H](NS(=O)(=O)c4ccc(O[C@H]5c6cc(Cl)cc(C#N)c6C[C@@H]5N5CCNCC5)c(F)c4)C3)C2)cc1F [Example 110, 4-([(1S,2S)-6-Chloro-4-cyano-2-(piperazin-1-yl)-2,3-dihydro-1H-inden-1-yl]oxy)-N—[(S)-1-(20-[(S)-3-[(4-([(1S,2S)-6-chloro-4-cyano-2-(piperazin-1-yl)-2,3-dihydro-1H-inden-1-yl]oxy)-3-fluorophenyl)sulfonamide)pyrrolidin-1-yl]-7,14-dioxo-3,18-dioxa-6,8,13,15-tetraazaicosyl)pyrrolidin-3-yl]-3-fluorobenzenesulfonamide; tetra(trifluoroacetate)]",> 70
C (>70%),C (NHE3 pIC50 > 7),"Cc1cc(S(=O)(=O)N[C@H]2CCN(CCOCCNC(=O)NCCCCNC(=O)NCCOCCN3CC[C@H](NS(=O)(=O)c4ccc(O[C@H]5c6cc(Cl)cc(Cl)c6C[C@@H]5N(C)C)c(C)c4)C3=O)C2=O)ccc1O[C@H]1c2cc(Cl)cc(Cl)c2C[C@@H]1N(C)C [Example 91, 1-(2-[2-[(3S)-3-[(4-[[(1S,2S)-4,6-Dichloro-2-(dimethylamino)-2,3-dihydro-1H-inden-1-yl]oxy]-3-methylbenzene)sulfonamido]-2-oxopyrrolidin-1-yl]ethoxy]ethyl)-3-(4-[[(2-[2-[(3S)-3-[(4-[[(1S,2S)-4,6-dichloro-2-(dimethylamino)-2,3-dihydro-1H-inden-1-yl]oxy]-3-methylbenzene)sulfonamido]-2-oxopyrrolidin-1-yl]ethoxy]ethyl)carbamoyl]amino]butyl)urea]",> 70
